Among the data in patent publication US5461045A, “Fused benzeneoxyacetic acid derivatives” (Ono Pharmaceutical Co., Ltd., priority 1992, dated 1995) are IC50 values, retold here.

Each structure is given as a SMILES string.

One test deals with T1, PGI2 receptor (Homo sapiens, UniProt P43119).
T1 construct: 300 μg of platelet plasma membranes; from tissue; host or cells: human platelets (plasma membranes)
Nature of the test: Inhibitory activity against 3H-iloprost binding onto PGI2 receptor in human platelet membrane fraction. The note with it: inhibition of 10 nM [3H]-iloprost specific binding; human platelet membranes 300 μg; 24° C., 30 min; pH 7.4. As for the experimental part:
i) Inhibitory activity against ^3 H-iloprost onto PGI2 receptor in human platelet membrane fraction The binding assay was performed in 200 μl volumes containing 300 μg of platelet plasma membranes. The membranes were added to a buffer composed of 50 mM Tris-HCl (pH 7.4), 15 mM MgCl2, 5 mM EDTA with test compound and 10 nM [^3 H]-iloprost. The membranes were incubated at 24° C. for 30 min. After incubation, 4ml of ice-cold 10 mM Tris-HCl buffer (pH 7.4) was added to the reaction mixture, and filtered through Whatman GF/B glass fiber filter, and washed 4 times with 4 ml of ice-cold 10 mM Tris-HCl buffer (pH 7.4) to separate bound and free [^3 H]-iloprost. After washing, the filter was dried and radioactivity was counted. Non-specific binding was obtained by performing parallel binding experiments in the presence of 10 μM non-labelled iloprost. Specific binding was calculated by subtracting the non-specific binding from the total binding. The inhibitory effect of test compound was calculated from the following equation. The percentage of inhibition (%)=100-(B1 /B0 ×100) B1 : specific [^3 H]-iloprost binding in presence of test compound B0 : specific [^3 H]-iloprost binding in absence of test compound

Test [1] deals with Human platelet aggregation. Nature of the test: Inhibitory effect on human platelet aggregation (ADP-induced, platelet-rich plasma). Type of test: cell-based. The note with it: compound added 1 min prior to ADP (4 μM). As for the experimental part:
| ii) Inhibitory effect on Human platelet aggregation Method of | experiment Platelet-rich plasma was prepared from human blood (5×10^5 platelets/mm^3), and the test compound was added to PRP 1 min prior to the addition of ADP (4 μM). The aggregation was monitored using a platelet aggregometer (NBS HEMA TRACER 601, Niko Bioscience, Japan).

T1 sequence (P43119 whole entry): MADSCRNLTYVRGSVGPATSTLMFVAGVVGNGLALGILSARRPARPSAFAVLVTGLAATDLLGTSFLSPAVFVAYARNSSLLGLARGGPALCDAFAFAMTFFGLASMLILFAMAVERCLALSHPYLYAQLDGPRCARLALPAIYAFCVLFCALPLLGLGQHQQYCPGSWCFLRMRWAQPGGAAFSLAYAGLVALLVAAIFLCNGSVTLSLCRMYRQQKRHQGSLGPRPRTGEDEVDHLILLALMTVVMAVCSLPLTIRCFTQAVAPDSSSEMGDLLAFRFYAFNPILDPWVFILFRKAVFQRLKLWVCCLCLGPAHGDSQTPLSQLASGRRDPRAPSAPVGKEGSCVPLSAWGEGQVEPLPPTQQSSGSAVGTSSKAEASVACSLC

The term IC50 denotes the concentration at which inhibition is half-maximal. A lower IC50 goes with inhibition by little substance. At PGI2 receptor, `O=C(O)COc1cccc2c1CCCC2CC=NOC(c1ccccc1)c1ccccc1` (stereo not drawn) [3(a)] returned an IC50 of 5400 nM. In other words, the single-digit micromolar range.

At PGI2 receptor, `O=C(O)COc1cccc2c1CCC2CC=NOC(c1ccccc1)c1ccccc1` (stereo not drawn) [3(e)] gave an IC50 of 3600 nM.

As to `CC(CC1CCc2c(cccc2OCC(=O)O)C1)=NOC(c1ccc(F)cc1)c1ccc(F)cc1` (stereo not drawn) [6(e)], at PGI2 receptor, the IC50 is 480 nM.

For `CC(CC1CCc2c(cccc2OCC(=O)O)C1)=NOC(c1ccccc1)c1ccc([N+](=O)[O-])cc1` (stereo not drawn) [6(f)], the concentration for half-maximal inhibition (IC50) at PGI2 receptor was determined as 1000 nM. This IC50 is about 2.1-fold higher than that of the compound before.

Compound `CC(CC1CCc2c(cccc2OCC(=O)O)C1)=NOC(c1ccccc1)c1ccncc1` (stereo not drawn) [6(g)] gave an IC50 at PGI2 receptor of 700 nM.

As to `CC(CC1CCc2c(cccc2OCC(=O)O)C1)=NOC(c1ccccc1)c1cccnc1` (stereo not drawn) [6(h)], the figures for the half-inhibitory concentration (IC50) (in test [1]; at PGI2 receptor) were 1100 nM and 1300 nM, respectively.

The compound `CC(CC1CCc2c(cccc2OCC(=O)O)C1)=NOC(c1ccccc1)c1ccccn1` (stereo not drawn) [6(i)] registered an IC50 at PGI2 receptor of 1800 nM. This counts as single-digit micromolar.

`COc1ccc(C(ON=C(C)CC2CCc3c(cccc3OCC(=O)O)C2)c2ccc(OC)cc2)cc1` (stereo not drawn) [6(j)] had a 50% inhibitory concentration (IC50) on PGI2 receptor of 1800 nM.

In turn, `CC(CC1CCc2c(cccc2OCC(=O)O)C1)=NOC(c1ccccc1)c1ccc(Cl)cc1` (stereo not drawn) [6(k)] yielded a half-inhibitory concentration (IC50) on PGI2 receptor of 300 nM.

The compound `CC(CC1CCc2c(cccc2OCC(=O)O)C1)=NOCc1ccccc1` (stereo not drawn) [6(l)] yielded an IC50 on PGI2 receptor of 1400 nM.

In the case of `CCC(CC1CCc2c(cccc2OCC(=O)O)C1)=NOC(c1ccccc1)c1ccccc1` (stereo not drawn) [6(m)], the IC50 in test [1] stood at 71 nM; at PGI2 receptor, 270 nM.

With `CCCC(CC1CCc2c(cccc2OCC(=O)O)C1)=NOC(c1ccccc1)c1ccccc1` (stereo not drawn) [6(n)], the half-maximal inhibitory concentration (IC50) in test [1] was 120 nM; at PGI2 receptor, 270 nM.

Compound `CC(C)C(CC1CCc2c(cccc2OCC(=O)O)C1)=NOC(c1ccccc1)c1ccccc1` (stereo not drawn) [6(o)] returned an IC50 at PGI2 receptor of 2300 nM. This counts as single-digit micromolar.

On to `O=C(O)COc1cccc2c1CCC(CC(=NOC(c1ccccc1)c1ccccc1)c1ccccc1)C2` (stereo not drawn) [6(p)], for which the concentration for half-maximal inhibition (IC50) on PGI2 receptor amounted to 2800 nM.

At PGI2 receptor, `CCCCCC(ON=C(C)CC1CCc2c(cccc2OCC(=O)O)C1)c1ccccc1` (stereo not drawn) [6(r)] returned a half-inhibitory concentration (IC50) of 2700 nM.

As to `CC(CC1CCc2c(cccc2OCC(=O)O)C1)=NOC(c1ccccc1)C1CCCCC1` (stereo not drawn) [6(s)], at PGI2 receptor, the 50% inhibitory concentration (IC50) came to 9600 nM.

Take `O=C(O)COc1cccc2c1CCC(CC=NOC(c1ccccc1)c1ccccc1)C2` (stereo not drawn) [Example 3, [2-(2-Diphenylmethyloxyiminoethyl)-1,2,3,4-tetrahydro-naphthalen-5-yloxy]acetic acid]: the IC50 in test [1] was 500 nM; at PGI2 receptor, 890 nM.

On PGI2 receptor, `O=C(O)COc1cccc2c1CCC(CCC=NOC(c1ccccc1)c1ccccc1)C2` (stereo not drawn) [Example 4, [2-(3-Diphenylmethyloxyiminopropyl)-1,2,3,4-tetrahydro-naphthalen-5-yloxy]acetic acid] yielded an IC50 of 2500 nM.

On PGI2 receptor, `CCOC(=O)COc1cccc2c1CCC(CC(C)=NOC(c1ccccc1)c1ccccc1)C2` (stereo not drawn) [Example 5, [2-(2-Diphenylmethyloxyiminopropyl)-1,2,3,4-tetrahydro-naphthalen-5-yloxy]acetic acid ethyl ester] returned an IC50 of 7000 nM.

With `CC(CC1CCc2c(cccc2OCC(=O)O)C1)=NOC(c1ccccc1)c1ccccc1` (stereo not drawn) [Example 6, [2-(2-Diphenylmethyloxyiminopropyl)-1,2,3,4-tetrahydro-naphthalen-5-yloxy]acetic acid], the concentration for half-maximal inhibition (IC50) in test [1] is 240 nM; at PGI2 receptor it was 280 nM.

In turn, `O=C(O)COc1cccc2c1CCC(CCNOC(c1ccccc1)c1ccccc1)C2` (stereo not drawn) [Example 8, [2-(2-Diphenylmethyloxyaminoethyl)-1,2,3,4-tetrahydro-naphthalen-5-yloxy]acetic acid] displayed a 50% inhibitory concentration (IC50) on PGI2 receptor of 4000 nM.

`O=C(O)COc1cccc2c1CCCC(C=NOC(c1ccccc1)c1ccccc1)C2` (stereo not drawn) [Example 9]: at PGI2 receptor, the IC50 was found to be 1900 nM.
